Reference: ChEMBL document CHEMBL4196217, “Structure-Based Drug Design and Identification of H2O-Soluble and Low Toxic Hexacyclic Camptothecin Derivatives with Improved Efficacy in Cancer and Lethal Inflammation Models in Vivo” (J Med Chem, 2018)

What was measured:
SGC-7901 = assay: Cytotoxicity in human SGC7901 cells assessed as reduction in cell viability incubated for 48 hrs by MTT assay; format: functional, cell-based; conditions: SGC-7901, 48 h
QGY-7703 = assay: Cytotoxicity in human QGY7703 cells assessed as reduction in cell viability incubated for 48 hrs by MTT assay; format: functional, cell-based; conditions: QGY-7703, 48 h
MDA-MB-231 = assay: Cytotoxicity in human MDA-MB-231 cells assessed as reduction in cell viability incubated for 48 hrs by MTT assay; format: functional, cell-based; conditions: MDA-MB-231, 48 h
SMMC-7721 = assay: Cytotoxicity in human SMMC7721 cells assessed as reduction in cell viability incubated for 48 hrs by MTT assay; format: functional, cell-based; conditions: SMMC-7721, 48 h
Bel-7402 = assay: Cytotoxicity in human Bel7402 cells assessed as reduction in cell viability incubated for 48 hrs by MTT assay; format: functional, cell-based; conditions: Bel-7402, 48 h
MGC-803 [1] = assay: Cytotoxicity in human MGC803 cells assessed as reduction in cell viability incubated for 48 hrs by MTT assay; format: functional, cell-based; conditions: MGC-803, 48 h
A549 = assay: cells; conditions: Homo sapiens, A549, 48 h
Description: Cytotoxicity in human A549 cells assessed as reduction in cell viability incubated for 48 hrs by MTT assay

SK-N-SH = assay: Cytotoxicity in human SK-N-SH cells assessed as reduction in cell viability incubated for 48 hrs by MTT assay; format: functional, cell-based
MCF7 = assay: cells; conditions: Homo sapiens, MCF7, 48 h
Description: Cytotoxicity in human MCF7 cells assessed as reduction in cell viability incubated for 48 hrs by MTT assay

KB = assay: Cytotoxicity in human KB cells assessed as reduction in cell viability incubated for 48 hrs by MTT assay; format: functional, cell-based
HepG2 [2] = assay: Cytotoxicity in human HepG2 cells assessed as reduction in cell viability incubated for 48 hrs by MTT assay; format: functional, cell-based; conditions: HepG2, 48 h
Mus musculus [3] = assay: Toxicity in Balb/C mouse administered as daily dose for 1 week measured daily for up to 28 days; format: organism-based; conditions: in vivo
[4] = Aqueous solubility of the compound; format: physicochemical; conditions: buffer
Mus musculus [5] = assay: Toxicity in Balb/C mouse administered as single dose measured daily for up to 28 days; format: organism-based; conditions: in vivo, 672 h
Mus musculus [6] = assay: Toxicity in human HepG2 cells xenografted Balb/C mouse assessed as reduction in body weight at 15 mg/kg, iv dosed once per week for 30 days followed by 2 weeks observation; format: organism-based; conditions: in vivo, 336 h
Mus musculus [7] = assay: Protection against LPS-induced lethal inflammation in C57BL/6 mouse model of sepsis assessed as survival at 10 mg/kg, po dosed 0.5 hrs before LPS injection followed by 10 mg/kg, po dosing at 1 hr, 4 hrs, and 8 hrs after LPS treatment; format: functional
HepG2 [8] = assay: Antitumor activity against human HepG2 cells xenografted in Balb/C mouse assessed as inhibition of tumor growth at 15 mg/kg, iv dosed once per week for 30 days followed by 2 weeks observation relative untreated control; format: functional; conditions: read-out: TGI
[9] = Drug level in plasma of C57BL/6 mouse at 2 mg/kg, iv measured up to 1 hr by LC-MS/MS analysis; format: ADME, organism-based; conditions: in vivo
[10] = Drug metabolism in plasma of C57BL/6 mouse assessed as (9S)-9-Ethyl-9-hydroxy-3-isopropyl-2,3-dihydro[1,3]-oxazino[5,6-f ]pyrano[3',4':6,7]indolizino[1,2-b]quinoline-1,10,13(9H,12H,15H)-trione formation at 2 mg/kg, iv measured up to 1 hr by LC-MS/MS analysis; format: ADME, organism-based; conditions: in vivo
[11] = Drug metabolism in plasma of C57BL/6 mouse assessed as (S)-8-Ethyl-8-hydroxy-2-isopropyl-8H-oxazolo[4,5-f ]-pyrano[3',4':6,7]indolizino[1,2-b]quinoline-9,12(11H,14H)-dione formation at 2 mg/kg, iv measured up to 1 hr by LC-MS/MS analysis; format: ADME, organism-based; conditions: in vivo
Mus musculus [12] = assay: Toxicity in human HepG2 cells xenografted Balb/C mouse assessed as reduction in body weight at 30 mg/kg, iv dosed once per week for 30 days followed by 2 weeks observation; format: organism-based; conditions: in vivo, 336 h
HepG2 [13] = assay: Potency index, ratio of IC50 for topotecan to IC50 for test compound for cytotoxicity in human HepG2 cells assessed as reduction in cell viability incubated for 48 hrs by MTT assay; format: functional
MGC-803 [14] = assay: Potency index, ratio of IC50 for topotecan to IC50 for test compound for cytotoxicity in human MGC803 cells assessed as reduction in cell viability incubated for 48 hrs by MTT assay; format: functional

CC[C@@]1(O)C(=O)OCc2c1cc1n(c2=O)Cc2cc3c(ccc4oncc43)nc2-1
IC50 (SGC-7901): > 10 µM
IC50 (QGY-7703): > 10 µM
IC50 (MDA-MB-231): 0.488 µM
IC50 (SMMC-7721): > 10 µM
IC50 (Bel-7402): 10.5 µM
IC50 (MGC-803 [1]): 0.514 µM
IC50 (A549): 1.03 µM
IC50 (SK-N-SH): 0.463 µM
IC50 (MCF7): 1.16 µM
IC50 (KB): 3.34 µM
IC50 (HepG2 [2]): 0.064 µM

CCCCc1nc2c(ccc3nc4c(cc32)Cn2c-4cc3c(c2=O)COC(=O)[C@]3(O)CC)o1
IC50 (SGC-7901): > 10 µM
IC50 (QGY-7703): > 10 µM
IC50 (MDA-MB-231): 0.562 µM
IC50 (SMMC-7721): > 10 µM
IC50 (Bel-7402): 2.02 µM
IC50 (MGC-803 [1]): 0.085 µM
IC50 (A549): 1.12 µM
IC50 (MCF7): 2.14 µM
IC50 (KB): 2.25 µM
IC50 (HepG2 [2]): 0.063 µM

CC[C@@]1(O)C(=O)OCc2c1cc1n(c2=O)Cc2cc3c(ccc4ocnc43)nc2-1
IC50 (SGC-7901): > 10 µM
IC50 (QGY-7703): 11.6 µM
IC50 (MDA-MB-231): 1.54 µM
IC50 (SMMC-7721): 3.08 µM
IC50 (Bel-7402): 2.44 µM
IC50 (MGC-803 [1]): 0.231 µM
IC50 (A549): 2.06 µM
IC50 (MCF7): 2.31 µM
IC50 (KB): 2.57 µM
IC50 (HepG2 [2]): 0.18 µM

CC[C@@]1(OC(=O)CNC(=O)CCC(=O)[O-])C(=O)OCc2c1cc1n(c2=O)Cc2cc3c4c(ccc3nc2-1)OC(C(C)C)NC4=O.[Na+] (stereo not given in full)
MTD (Mus musculus [3]): 10 mg/kg
solubility [4]: 3400 µg/mL
MTD (Mus musculus [5]): 16 mg/kg

CC[C@@]1(OC(=O)CNC(=O)CCC(=O)O)C(=O)OCc2c1cc1n(c2=O)Cc2cc3c(ccc4oncc43)nc2-1
IC50 (SGC-7901): > 10 µM
IC50 (QGY-7703): > 10 µM
IC50 (MDA-MB-231): 0.641 µM
IC50 (SMMC-7721): > 10 µM
IC50 (Bel-7402): 2.02 µM
IC50 (MGC-803 [1]): 0.275 µM
IC50 (A549): 1.83 µM
IC50 (SK-N-SH): 0.549 µM
IC50 (MCF7): > 10 µM
IC50 (KB): 7.14 µM
IC50 (HepG2 [2]): 0.348 µM

CC[C@@]1(OC(=O)CNC(=O)CCC(=O)O)C(=O)OCc2c1cc1n(c2=O)Cc2cc3c(ccc4oc(C(C)C)nc43)nc2-1
Activity (Mus musculus [6]): Non-Toxic
IC50 (SGC-7901): > 10 µM
Activity (Mus musculus [7]): 80%
IC50 (QGY-7703): > 10 µM
IC50 (MDA-MB-231): 0.425 µM
inhibition in vivo at 15 mg/kg (HepG2 [8]): 86%
IC50 (SMMC-7721): 8.5 µM
IC50 (Bel-7402): 0.425 µM
Drug uptake [9]: Not Active
IC50 (MGC-803 [1]): 0.062 µM
Drug metabolism [10]: Metabolite_Notdetected
Drug metabolism [11]: Metabolite_Notdetected
IC50 (A549): 0.17 µM
Activity (Mus musculus [12]): Non-Toxic
IC50 (SK-N-SH): 0.51 µM
IC50 (MCF7): > 10 µM
IC50 (KB): 0.935 µM
IC50 (HepG2 [2]): 0.06 µM

CC[C@@]1(O)C(=O)OCc2c1cc1n(c2=O)Cc2cc3c(ccc4oc(C(C)C)nc43)nc2-1
Ratio IC50 (HepG2 [13]): 10
IC50 (SGC-7901): > 10 µM
IC50 (QGY-7703): 11.6 µM
IC50 (MDA-MB-231): 1.44 µM
IC50 (SMMC-7721): 10.4 µM
IC50 (Bel-7402): 3.48 µM
IC50 (MGC-803 [1]): 0.018 µM
Ratio IC50 (MGC-803 [14]): 10
IC50 (A549): 1.39 µM
IC50 (MCF7): 4.64 µM
IC50 (KB): 2.2 µM
IC50 (HepG2 [2]): 0.016 µM
